Measurements taken from the supplement of paper PMC10307832.

Assays:
Experiment in all cases: relative viability (nuclei count vs DMSO), 5 days (fraction); higher = more cells survive
[1] = compound: CCOc1cc2ncc(C#N)c(Nc3ccc(OCc4ccccn4)c(Cl)c3)c2cc1NC(=O)/C=C/CN(C)C [Neratinib] + CC(C)C[C@H](NC(=O)[C@H](Cc1ccccc1)NC(=O)c1cnccn1)B(O)O [Bortezomib] (partner 0.002 µM)
Summary of the method: (§1)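 After 5 days of treatment, lung cancer cells in 1536-well plates were fixed and stained in a single step (final 0.05% Triton X-100, 1% formaldehyde, 1 ug/ml Hoechst) and their nuclei counted on 4× images. Treatment had been applied by pin tool the day after seeding as one drug alone or as a fixed anchor-drug dose with five library-drug doses (not always all listed) in √10 steps. Relative viability is the nuclei count of treated wells divided by that of vehicle wells, and values are medians of duplicate plates.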

[2] = compound: CCOc1cc2ncc(C#N)c(Nc3ccc(OCc4ccccn4)c(Cl)c3)c2cc1NC(=O)/C=C/CN(C)C [Neratinib] + Cc1cc(Nc2cc(N3CCN(C)CC3)nc(Sc3ccc(NC(=O)C4CC4)cc3)n2)n[nH]1 [Tozasertib] (partner 0.1 µM)
Summary of the method: as §1

[3] = compound: CCOc1cc2ncc(C#N)c(Nc3ccc(OCc4ccccn4)c(Cl)c3)c2cc1NC(=O)/C=C/CN(C)C [Neratinib] + NC(=O)Nc1cc(-c2cccc(F)c2)sc1C(=O)N[C@H]1CCCNC1 [AZD7762] (partner 0.2 µM)
Summary of the method: as §1

[4] = compound: CCOc1cc2ncc(C#N)c(Nc3ccc(OCc4ccccn4)c(Cl)c3)c2cc1NC(=O)/C=C/CN(C)C [Neratinib] + Nc1ncn([C@H]2C[C@H](O)[C@@H](CO)O2)c(=O)n1 [Decitabine] (partner 2 µM)
Summary of the method: as §1

## LU99A
[1]; first compound 0.01 µM
  relative viability: 1.11
[1]; first compound 0.03162 µM
  relative viability: 1.18
[1]; first compound 0.1 µM
  relative viability: 0.762
[1]; first compound 0.3162 µM
  relative viability: 0.927
[1]; first compound 1 µM
  relative viability: 0.413
[2]; first compound 0.01 µM
  relative viability: 0.286
[2]; first compound 0.03162 µM
  relative viability: 0.279
[2]; first compound 0.1 µM
  relative viability: 0.274
[2]; first compound 0.3162 µM
  relative viability: 0.25
[2]; first compound 1 µM
  relative viability: 0.19
[3]; first compound 0.01 µM
  relative viability: 0.426
[3]; first compound 0.03162 µM
  relative viability: 0.403
[3]; first compound 0.1 µM
  relative viability: 0.314
[3]; first compound 0.3162 µM
  relative viability: 0.374
[3]; first compound 1 µM
  relative viability: 0.263
[4]; first compound 0.03162 µM
  relative viability: 1.12
[4]; first compound 0.1 µM
  relative viability: 0.752
[4]; first compound 0.3162 µM
  relative viability: 0.952
[4]; first compound 1 µM
  relative viability: 0.578

## NCI-H727
[1]; first compound 0.01 µM
  relative viability: 0.961
[1]; first compound 0.03162 µM
  relative viability: 0.914
[1]; first compound 0.3162 µM
  relative viability: 0.893
[1]; first compound 1 µM
  relative viability: 0.536
[2]; first compound 0.01 µM
  relative viability: 0.675
[2]; first compound 0.03162 µM
  relative viability: 0.535
[2]; first compound 0.1 µM
  relative viability: 0.5
[2]; first compound 0.3162 µM
  relative viability: 0.53
[2]; first compound 1 µM
  relative viability: 0.34
[3]; first compound 0.01 µM
  relative viability: 0.574
[3]; first compound 0.03162 µM
  relative viability: 0.568
[3]; first compound 0.3162 µM
  relative viability: 0.497
[3]; first compound 1 µM
  relative viability: 0.374
[4]; first compound 0.01 µM
  relative viability: 0.897
[4]; first compound 0.03162 µM
  relative viability: 0.846
[4]; first compound 0.3162 µM
  relative viability: 0.796
[4]; first compound 1 µM
  relative viability: 0.717

## A-427
[1]; first compound 0.01 µM
  relative viability: 1.08
[1]; first compound 0.03162 µM
  relative viability: 0.996
[1]; first compound 0.1 µM
  relative viability: 1.02
[1]; first compound 0.3162 µM
  relative viability: 0.952
[1]; first compound 1 µM
  relative viability: 0.918
[2]; first compound 0.01 µM
  relative viability: 0.234
[2]; first compound 0.03162 µM
  relative viability: 0.246
[2]; first compound 0.1 µM
  relative viability: 0.177
[2]; first compound 0.3162 µM
  relative viability: 0.214
[2]; first compound 1 µM
  relative viability: 0.145
[3]; first compound 0.01 µM
  relative viability: 0.811
[3]; first compound 0.03162 µM
  relative viability: 0.725
[3]; first compound 0.1 µM
  relative viability: 0.704
[3]; first compound 0.3162 µM
  relative viability: 0.729
[3]; first compound 1 µM
  relative viability: 0.338
[4]; first compound 0.01 µM
  relative viability: 0.558
[4]; first compound 0.03162 µM
  relative viability: 0.606
[4]; first compound 0.1 µM
  relative viability: 0.573
[4]; first compound 0.3162 µM
  relative viability: 0.521
[4]; first compound 1 µM
  relative viability: 0.54

## NCI-H460
[1]; first compound 0.01 µM
  relative viability: 1.22
[1]; first compound 0.03162 µM
  relative viability: 1.36
[1]; first compound 0.3162 µM
  relative viability: 1.27
[1]; first compound 1 µM
  relative viability: 0.587
[2]; first compound 0.01 µM
  relative viability: 0.587
[2]; first compound 0.03162 µM
  relative viability: 0.546
[2]; first compound 0.1 µM
  relative viability: 0.378
[2]; first compound 0.3162 µM
  relative viability: 0.268
[2]; first compound 1 µM
  relative viability: 0.0381
[3]; first compound 0.01 µM
  relative viability: 0.654
[3]; first compound 0.03162 µM
  relative viability: 0.718
[3]; first compound 0.1 µM
  relative viability: 0.639
[3]; first compound 0.3162 µM
  relative viability: 0.54
[3]; first compound 1 µM
  relative viability: 0.265
[4]; first compound 0.01 µM
  relative viability: 0.559
[4]; first compound 0.03162 µM
  relative viability: 0.527
[4]; first compound 0.1 µM
  relative viability: 0.522
[4]; first compound 0.3162 µM
  relative viability: 0.459
[4]; first compound 1 µM
  relative viability: 0.449

## HCC-44
[1]; first compound 0.01 µM
  relative viability: 0.997
[1]; first compound 0.03162 µM
  relative viability: 0.954
[1]; first compound 0.1 µM
  relative viability: 0.78
[1]; first compound 0.3162 µM
  relative viability: 0.931
[1]; first compound 1 µM
  relative viability: 0.952
[2]; first compound 0.01 µM
  relative viability: 1.31
[2]; first compound 0.03162 µM
  relative viability: 1.15
[2]; first compound 0.3162 µM
  relative viability: 0.778
[2]; first compound 1 µM
  relative viability: 0.458
[3]; first compound 0.01 µM
  relative viability: 0.961
[3]; first compound 0.03162 µM
  relative viability: 0.995
[3]; first compound 0.1 µM
  relative viability: 0.947
[3]; first compound 0.3162 µM
  relative viability: 1.05
[3]; first compound 1 µM
  relative viability: 1.12
[4]; first compound 0.01 µM
  relative viability: 0.993
[4]; first compound 0.03162 µM
  relative viability: 0.983
[4]; first compound 0.1 µM
  relative viability: 0.897
[4]; first compound 0.3162 µM
  relative viability: 0.922
[4]; first compound 1 µM
  relative viability: 1.09

## NCI-H1993
[1]; first compound 0.03162 µM
  relative viability: 1.11
[1]; first compound 0.1 µM
  relative viability: 0.763
[1]; first compound 0.3162 µM
  relative viability: 0.646
[2]; first compound 0.01 µM
  relative viability: 0.528
[2]; first compound 0.03162 µM
  relative viability: 0.594
[2]; first compound 0.1 µM
  relative viability: 0.597
[2]; first compound 0.3162 µM
  relative viability: 0.536
[2]; first compound 1 µM
  relative viability: 0.593
[3]; first compound 0.01 µM
  relative viability: 0.762
[3]; first compound 0.03162 µM
  relative viability: 0.745
[3]; first compound 0.1 µM
  relative viability: 0.624
[3]; first compound 0.3162 µM
  relative viability: 0.465
[3]; first compound 1 µM
  relative viability: 0.581
[4]; first compound 0.01 µM
  relative viability: 0.643
[4]; first compound 0.03162 µM
  relative viability: 0.628
[4]; first compound 0.1 µM
  relative viability: 0.272
[4]; first compound 0.3162 µM
  relative viability: 0.484
[4]; first compound 1 µM
  relative viability: 0.578

## NCI-H441
[1]; first compound 0.01 µM
  relative viability: 0.661
[1]; first compound 0.03162 µM
  relative viability: 0.381
[1]; first compound 0.1 µM
  relative viability: 0.372
[1]; first compound 0.3162 µM
  relative viability: 0.54
[1]; first compound 1 µM
  relative viability: 0.265
[2]; first compound 0.01 µM
  relative viability: 0.611
[2]; first compound 0.03162 µM
  relative viability: 0.775
[2]; first compound 0.1 µM
  relative viability: 0.666
[2]; first compound 0.3162 µM
  relative viability: 0.384
[2]; first compound 1 µM
  relative viability: 0.334
[3]; first compound 0.01 µM
  relative viability: 1.12
[3]; first compound 0.03162 µM
  relative viability: 1.32
[3]; first compound 0.1 µM
  relative viability: 0.958
[3]; first compound 0.3162 µM
  relative viability: 0.987
[3]; first compound 1 µM
  relative viability: 0.73
[4]; first compound 0.01 µM
  relative viability: 0.255
[4]; first compound 0.03162 µM
  relative viability: 0.246
[4]; first compound 0.1 µM
  relative viability: 0.235
[4]; first compound 0.3162 µM
  relative viability: 0.209
[4]; first compound 1 µM
  relative viability: 0.2

## EKVX
[1]; first compound 0.01 µM
  relative viability: 1.02
[1]; first compound 0.03162 µM
  relative viability: 1.18
[1]; first compound 0.1 µM
  relative viability: 0.894
[1]; first compound 0.3162 µM
  relative viability: 0.271
[1]; first compound 1 µM
  relative viability: 0.184
[2]; first compound 0.01 µM
  relative viability: 0.416
[2]; first compound 0.03162 µM
  relative viability: 0.42
[2]; first compound 0.1 µM
  relative viability: 0.345
[2]; first compound 0.3162 µM
  relative viability: 0.197
[2]; first compound 1 µM
  relative viability: 0.13
[3]; first compound 0.01 µM
  relative viability: 0.726
[3]; first compound 0.03162 µM
  relative viability: 0.699
[3]; first compound 0.1 µM
  relative viability: 0.609
[3]; first compound 0.3162 µM
  relative viability: 0.441
[3]; first compound 1 µM
  relative viability: 0.199
[4]; first compound 0.01 µM
  relative viability: 0.339
[4]; first compound 0.03162 µM
  relative viability: 0.351
[4]; first compound 0.1 µM
  relative viability: 0.324
[4]; first compound 0.3162 µM
  relative viability: 0.197
[4]; first compound 1 µM
  relative viability: 0.16

## NCI-H1734
[1]; first compound 0.01 µM
  relative viability: 1.27
[1]; first compound 0.03162 µM
  relative viability: 0.996
[1]; first compound 0.1 µM
  relative viability: 0.912
[1]; first compound 0.3162 µM
  relative viability: 0.934
[1]; first compound 1 µM
  relative viability: 0.74
[2]; first compound 0.01 µM
  relative viability: 0.231
[2]; first compound 0.03162 µM
  relative viability: 0.281
[2]; first compound 0.1 µM
  relative viability: 0.168
[2]; first compound 0.3162 µM
  relative viability: 0.266
[2]; first compound 1 µM
  relative viability: 0.212
[3]; first compound 0.01 µM
  relative viability: 0.584
[3]; first compound 0.03162 µM
  relative viability: 0.555
[3]; first compound 0.1 µM
  relative viability: 0.457
[3]; first compound 0.3162 µM
  relative viability: 0.505
[3]; first compound 1 µM
  relative viability: 0.36
[4]; first compound 0.01 µM
  relative viability: 0.539
[4]; first compound 0.03162 µM
  relative viability: 0.579
[4]; first compound 0.3162 µM
  relative viability: 0.54
[4]; first compound 1 µM
  relative viability: 0.481
